The values that follow come from BindingDB's records for doi:10.1016/j.chembiol.2004.12.010 (National Institutes of Health, 2005).

Common to all, as to experiment: Binding Assay
Experiment [1] deals with T1, Adenosine receptor A2a (Homo sapiens, UniProt P29274). From the text:
(§1) Binding affinity of ligand at human adenosine receptors expressed in CHO cell.

Another experiment deals with T2, Adenosine receptor A3 (Homo sapiens, UniProt P0DMS8).
T2 sequence (P0DMS8 whole entry): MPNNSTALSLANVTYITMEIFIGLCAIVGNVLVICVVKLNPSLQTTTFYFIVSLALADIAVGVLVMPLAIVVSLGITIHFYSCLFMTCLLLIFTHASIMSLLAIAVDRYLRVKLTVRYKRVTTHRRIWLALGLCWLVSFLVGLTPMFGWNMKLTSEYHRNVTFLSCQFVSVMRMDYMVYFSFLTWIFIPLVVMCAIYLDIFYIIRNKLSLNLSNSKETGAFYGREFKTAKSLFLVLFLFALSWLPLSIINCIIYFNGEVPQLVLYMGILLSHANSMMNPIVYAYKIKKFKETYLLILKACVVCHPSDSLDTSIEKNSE
Source text: as §1

Another experiment concerns the target T3, Adenosine receptor A2b (Homo sapiens, UniProt P29275).
T3 sequence (P29275 whole entry): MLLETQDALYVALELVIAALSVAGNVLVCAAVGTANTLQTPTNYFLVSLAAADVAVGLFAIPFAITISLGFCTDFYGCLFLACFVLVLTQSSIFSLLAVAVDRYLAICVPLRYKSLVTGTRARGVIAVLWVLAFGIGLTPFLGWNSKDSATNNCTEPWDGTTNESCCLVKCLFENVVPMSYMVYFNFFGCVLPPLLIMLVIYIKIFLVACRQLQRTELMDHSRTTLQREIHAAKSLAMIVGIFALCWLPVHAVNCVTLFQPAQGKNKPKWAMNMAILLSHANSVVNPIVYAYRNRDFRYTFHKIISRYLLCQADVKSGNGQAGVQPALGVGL
Source text: as §1

A further experiment concerns the target T4, Adenosine receptor A1 (Homo sapiens, UniProt P30542).
T4 sequence (P30542 whole entry): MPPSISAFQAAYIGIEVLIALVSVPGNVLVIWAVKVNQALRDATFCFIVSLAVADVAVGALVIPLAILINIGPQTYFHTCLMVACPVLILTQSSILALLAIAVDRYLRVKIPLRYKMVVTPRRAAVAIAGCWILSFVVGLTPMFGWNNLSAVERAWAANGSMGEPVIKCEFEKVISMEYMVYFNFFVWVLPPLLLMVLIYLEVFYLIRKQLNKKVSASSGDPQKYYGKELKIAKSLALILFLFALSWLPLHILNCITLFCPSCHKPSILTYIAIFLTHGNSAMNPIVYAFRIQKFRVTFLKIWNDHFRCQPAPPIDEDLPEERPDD
Source text: as §1

Experiment [2] has as its target T1, Adenosine receptor A2a. The note with it: pH 7.4; 25 °C. From the text: Binding affinity of ligand at WT and mutant human A2A ARs expressed in COS7 cell.

The term Ki denotes the equilibrium dissociation constant of an inhibitor or competing ligand from its target. Lower therefore signals tighter binding. One may read the EC50 as the concentration at which the effect is half-maximal. Low values mean a more potent agent, high ones a less potent agent.

SMILES strings stand for the structures. Values joined by “and” are separate entries in the source; they are usually repeats but may differ in a detail not shown here. Identical values can stand only once.

T1 sequence (P29274 whole entry): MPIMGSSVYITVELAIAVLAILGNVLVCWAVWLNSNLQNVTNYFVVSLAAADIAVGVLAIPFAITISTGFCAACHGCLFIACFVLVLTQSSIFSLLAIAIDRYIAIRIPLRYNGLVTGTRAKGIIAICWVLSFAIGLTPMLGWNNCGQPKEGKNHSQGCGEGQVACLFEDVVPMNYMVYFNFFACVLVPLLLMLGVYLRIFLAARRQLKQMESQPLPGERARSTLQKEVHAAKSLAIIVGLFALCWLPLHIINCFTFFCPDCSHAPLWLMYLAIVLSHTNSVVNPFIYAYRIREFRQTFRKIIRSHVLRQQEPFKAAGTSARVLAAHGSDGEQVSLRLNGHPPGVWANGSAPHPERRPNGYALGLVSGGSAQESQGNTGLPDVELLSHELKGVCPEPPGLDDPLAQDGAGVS

Take `NNC(=O)[C@H]1O[C@@H](n2cnc3c(N)ncnc32)[C@H](O)[C@@H]1O`: the Ki turned out to be 2.23 µM at Adenosine receptor A2a [1], 378 nM on Adenosine receptor A3 and 171 nM on Adenosine receptor A1. The EC50 on Adenosine receptor A2b was found to be 12 µM.
On to `CCNC(=O)[C@H]1O[C@@H](n2cnc3c(N=C(N)N)ncnc32)[C@H](O)[C@@H]1O`, for which the Ki on Adenosine receptor A2a [2] is 4.51 µM and 5.68 µM and 0.773 µM and 1.14 µM; on Adenosine receptor A2a [1], 0.628 µM; on Adenosine receptor A3, 5.1 nM; on Adenosine receptor A1, 7 nM. The EC50 at Adenosine receptor A2b was 0.0545 µM.
`NCCNC(=O)[C@H]1O[C@@H](n2cnc3c(N)ncnc32)[C@H](O)[C@@H]1O` [5'-N-[(2-AMINO)ETHYL CARBOXAMIDO] ADENOSINE] had an EC50 at Adenosine receptor A2b of 15.6 µM. Moreover, at Adenosine receptor A1, the Ki is 245 nM.
In the case of `CNC(=O)[C@H]1O[C@@H](n2cnc3c(NCCN)ncnc32)[C@H](O)[C@@H]1O` [Adenosine analog, 5], the Ki was greater than 100 µM on Adenosine receptor A2a [2], greater than 100 µM on Adenosine receptor A2a [1], 24600 nM at Adenosine receptor A3 and 775 nM on Adenosine receptor A1. The molecule also displayed an EC50 at Adenosine receptor A2b greater than 10 µM.
Turning to `NCCCNC(=O)[C@H]1O[C@@H](n2cnc3c(N)ncnc32)[C@H](O)[C@@H]1O` [Adenosine analog, 8], the Ki is greater than 10 µM on Adenosine receptor A2a [1], greater than 10000 nM on Adenosine receptor A3 and greater than 100000 nM at Adenosine receptor A1. At Adenosine receptor A2b, this molecule had an EC50 greater than 10 µM.
As for `NCCCCNC(=O)[C@H]1O[C@@H](n2cnc3c(N)ncnc32)[C@H](O)[C@@H]1O` [Adenosine analog, 9], the Ki on Adenosine receptor A2a [2] was > 100 µM and 55.2 µM and 48.1 µM; at Adenosine receptor A2a [1], greater than 100 µM; on Adenosine receptor A3, greater than 10000 nM; on Adenosine receptor A1, greater than 100000 nM. The same molecule gave a 50% effective concentration (EC50) on Adenosine receptor A2b greater than 10 µM.
For `NCCCCCNC(=O)[C@H]1O[C@@H](n2cnc3c(N)ncnc32)[C@H](O)[C@@H]1O` [Adenosine analog, 10], the Ki at Adenosine receptor A2a [2] is > 100 µM and 124 µM; at Adenosine receptor A2a [1], greater than 100 µM; on Adenosine receptor A3, greater than 100000 nM; on Adenosine receptor A1 it was greater than 100000 nM. On Adenosine receptor A2b, this molecule showed a concentration giving a half-maximal response (EC50) greater than 10 µM.
On Adenosine receptor A2b, `Nc1ncnc2c1ncn2[C@@H]1O[C@H](C(=O)NCCO)[C@@H](O)[C@H]1O` [Adenosine analog, 11] yielded an EC50 of 0.942 µM.
For the molecule `Cc1ccccc1CNc1ncnc2c1ncn2[C@@H]1O[C@H](C(=O)NN)[C@@H](O)[C@H]1O` [Adenosine analog, 12], the Ki is greater than 10 µM on Adenosine receptor A2a [1], 394 nM on Adenosine receptor A3 and greater than 10000 nM on Adenosine receptor A1. On Adenosine receptor A2b, this molecule displayed an EC50 greater than 100 µM.
The like results for `CCNC(=O)[C@H]1O[C@@H](n2cnc3c(NCc4ccccc4C)ncnc32)[C@H](O)[C@@H]1O` [Adenosine analog, 13] were, in that order, 5.43 µM, 78.8 nM, 106 nM and greater than 1 µM.
`Cc1ccccc1CNc1ncnc2c1ncn2[C@@H]1O[C@H](C(=O)NCCN)[C@@H](O)[C@H]1O` [Adenosine analog, 14]: the Ki at Adenosine receptor A2a [1] was 55.9 µM; on Adenosine receptor A3, greater than 10000 nM; on Adenosine receptor A1 it was greater than 10000 nM. The molecule also came in with an EC50 on Adenosine receptor A2b greater than 1 µM.
Regarding `Cc1ccccc1CNc1ncnc2c1ncn2[C@@H]1O[C@H](C(=O)NCCO)[C@@H](O)[C@H]1O` [Adenosine analog, 15], the Ki at Adenosine receptor A2a [1] is greater than 10 µM; at Adenosine receptor A3 it was 1640 nM; at Adenosine receptor A1, 368 nM. For the same molecule, a half-maximal response on Adenosine receptor A2b (EC50) required 3.72 µM.
For the molecule `Cc1ccccc1CNc1ncnc2c1ncn2[C@@H]1O[C@H](CO)[C@@H](O)[C@H]1O` [Adenosine analog, 16], the Ki at Adenosine receptor A2a [1] was 0.764 µM; at Adenosine receptor A3, 47.2 nM; at Adenosine receptor A1 it was 39.3 nM.
In the case of `CNc1nc(N)nc2c1ncn2[C@@H]1O[C@H](CO)[C@@H](O)[C@H]1O` [Adenosine analog, 17], the Ki on Adenosine receptor A2a [2] is greater than 100 µM; at Adenosine receptor A2a [1], greater than 10 µM; at Adenosine receptor A3, 39 nM; at Adenosine receptor A1, 484 nM. This molecule had an EC50 on Adenosine receptor A2b greater than 10 µM.
Turning to `CNc1nc(CN)nc2c1ncn2[C@@H]1O[C@H](CO)[C@@H](O)[C@H]1O` [Adenosine analog, 18], the Ki is greater than 100 µM at Adenosine receptor A2a [2], greater than 10 µM at Adenosine receptor A2a [1], 719 nM at Adenosine receptor A3 and greater than 10000 nM on Adenosine receptor A1. Besides, the EC50 at Adenosine receptor A2b is greater than 10 µM.
In the case of `CNc1nc(C(=N)N)nc2c1ncn2[C@@H]1O[C@H](CO)[C@@H](O)[C@H]1O` [Adenosine analog, 19], the Ki on Adenosine receptor A2a [2] is greater than 100 µM; at Adenosine receptor A2a [1] it was greater than 10 µM; on Adenosine receptor A3 it was 2730 nM; on Adenosine receptor A1 it was greater than 10000 nM. This molecule showed an EC50 at Adenosine receptor A2b greater than 10 µM.
